# Source: patent US11547697B2, “Heterocyclic compounds and uses thereof” (MILLENNIUM PHARMACEUTICALS, INC., priority 2009, dated 2023)
# Read-outs that look alike come from different tables or passages of the source.
# Experiments:
# Format in all cases: biochemical
# p110α/p85α = p110α/p85α (Homo sapiens (Human), UniProt P42336); test: PI 3-Kinase (human) HTRF assay, p110α/p85α
# p110β/p85α = p110β/p85α (Homo sapiens (Human), UniProt P42338); test: PI 3-Kinase (human) HTRF assay, p110β/p85α
# p110δ/p85α = p110δ/p85α (Homo sapiens (Human), UniProt O00329); test: PI 3-Kinase (human) HTRF assay, p110δ/p85α
# Sequence of p110δ/p85α (O00329 whole entry): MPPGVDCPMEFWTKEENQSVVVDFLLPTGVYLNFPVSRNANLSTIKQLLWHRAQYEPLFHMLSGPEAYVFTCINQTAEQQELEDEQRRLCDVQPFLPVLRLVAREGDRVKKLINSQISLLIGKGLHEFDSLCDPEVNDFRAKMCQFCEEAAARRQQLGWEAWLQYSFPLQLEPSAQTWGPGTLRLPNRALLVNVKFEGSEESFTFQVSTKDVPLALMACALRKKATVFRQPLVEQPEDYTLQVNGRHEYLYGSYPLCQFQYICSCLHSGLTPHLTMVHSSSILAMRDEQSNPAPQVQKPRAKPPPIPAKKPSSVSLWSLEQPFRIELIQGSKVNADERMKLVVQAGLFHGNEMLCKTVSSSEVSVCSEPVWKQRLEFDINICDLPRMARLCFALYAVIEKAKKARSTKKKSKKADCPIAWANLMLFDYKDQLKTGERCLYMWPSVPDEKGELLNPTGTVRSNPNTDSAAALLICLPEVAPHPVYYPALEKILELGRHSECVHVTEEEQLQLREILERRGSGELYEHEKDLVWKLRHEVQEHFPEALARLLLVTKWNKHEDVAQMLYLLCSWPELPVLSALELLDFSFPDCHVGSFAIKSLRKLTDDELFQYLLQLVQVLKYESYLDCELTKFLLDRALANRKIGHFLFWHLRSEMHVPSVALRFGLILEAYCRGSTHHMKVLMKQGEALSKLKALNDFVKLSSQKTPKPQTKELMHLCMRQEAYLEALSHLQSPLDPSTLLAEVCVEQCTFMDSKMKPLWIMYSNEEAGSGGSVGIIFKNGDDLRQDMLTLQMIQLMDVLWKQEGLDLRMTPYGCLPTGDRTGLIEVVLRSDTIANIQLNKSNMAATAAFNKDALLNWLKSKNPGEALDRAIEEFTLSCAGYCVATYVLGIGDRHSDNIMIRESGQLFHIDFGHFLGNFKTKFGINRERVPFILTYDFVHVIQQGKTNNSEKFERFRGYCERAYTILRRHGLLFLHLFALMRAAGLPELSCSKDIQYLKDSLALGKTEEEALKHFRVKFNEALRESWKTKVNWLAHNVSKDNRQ
# Sequence of p110δ/p85α (P27986 whole entry partner): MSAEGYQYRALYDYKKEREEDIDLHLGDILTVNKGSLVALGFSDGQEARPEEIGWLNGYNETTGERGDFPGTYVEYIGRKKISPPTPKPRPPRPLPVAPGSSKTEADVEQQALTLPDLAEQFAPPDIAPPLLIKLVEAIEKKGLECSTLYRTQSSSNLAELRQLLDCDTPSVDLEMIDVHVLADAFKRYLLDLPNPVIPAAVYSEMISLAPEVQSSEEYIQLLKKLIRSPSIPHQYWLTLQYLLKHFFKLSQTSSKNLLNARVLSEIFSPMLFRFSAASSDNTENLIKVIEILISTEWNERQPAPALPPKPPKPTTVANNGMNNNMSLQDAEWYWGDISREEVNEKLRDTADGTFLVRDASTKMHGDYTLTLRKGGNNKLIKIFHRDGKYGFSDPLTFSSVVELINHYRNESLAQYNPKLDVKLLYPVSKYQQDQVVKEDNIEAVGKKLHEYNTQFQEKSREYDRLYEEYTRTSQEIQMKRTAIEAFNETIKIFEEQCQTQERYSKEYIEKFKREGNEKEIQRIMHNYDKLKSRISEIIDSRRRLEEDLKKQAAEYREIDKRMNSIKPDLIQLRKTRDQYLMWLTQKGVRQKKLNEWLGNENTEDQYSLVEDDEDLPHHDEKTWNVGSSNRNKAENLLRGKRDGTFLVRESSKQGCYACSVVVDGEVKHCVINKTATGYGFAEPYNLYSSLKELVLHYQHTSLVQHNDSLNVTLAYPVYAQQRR
# p110γ = p110γ (Homo sapiens (Human), UniProt P48736); test: PI 3-Kinase (human) HTRF assay, p110γ
# Sequence of p110γ (P48736 whole entry): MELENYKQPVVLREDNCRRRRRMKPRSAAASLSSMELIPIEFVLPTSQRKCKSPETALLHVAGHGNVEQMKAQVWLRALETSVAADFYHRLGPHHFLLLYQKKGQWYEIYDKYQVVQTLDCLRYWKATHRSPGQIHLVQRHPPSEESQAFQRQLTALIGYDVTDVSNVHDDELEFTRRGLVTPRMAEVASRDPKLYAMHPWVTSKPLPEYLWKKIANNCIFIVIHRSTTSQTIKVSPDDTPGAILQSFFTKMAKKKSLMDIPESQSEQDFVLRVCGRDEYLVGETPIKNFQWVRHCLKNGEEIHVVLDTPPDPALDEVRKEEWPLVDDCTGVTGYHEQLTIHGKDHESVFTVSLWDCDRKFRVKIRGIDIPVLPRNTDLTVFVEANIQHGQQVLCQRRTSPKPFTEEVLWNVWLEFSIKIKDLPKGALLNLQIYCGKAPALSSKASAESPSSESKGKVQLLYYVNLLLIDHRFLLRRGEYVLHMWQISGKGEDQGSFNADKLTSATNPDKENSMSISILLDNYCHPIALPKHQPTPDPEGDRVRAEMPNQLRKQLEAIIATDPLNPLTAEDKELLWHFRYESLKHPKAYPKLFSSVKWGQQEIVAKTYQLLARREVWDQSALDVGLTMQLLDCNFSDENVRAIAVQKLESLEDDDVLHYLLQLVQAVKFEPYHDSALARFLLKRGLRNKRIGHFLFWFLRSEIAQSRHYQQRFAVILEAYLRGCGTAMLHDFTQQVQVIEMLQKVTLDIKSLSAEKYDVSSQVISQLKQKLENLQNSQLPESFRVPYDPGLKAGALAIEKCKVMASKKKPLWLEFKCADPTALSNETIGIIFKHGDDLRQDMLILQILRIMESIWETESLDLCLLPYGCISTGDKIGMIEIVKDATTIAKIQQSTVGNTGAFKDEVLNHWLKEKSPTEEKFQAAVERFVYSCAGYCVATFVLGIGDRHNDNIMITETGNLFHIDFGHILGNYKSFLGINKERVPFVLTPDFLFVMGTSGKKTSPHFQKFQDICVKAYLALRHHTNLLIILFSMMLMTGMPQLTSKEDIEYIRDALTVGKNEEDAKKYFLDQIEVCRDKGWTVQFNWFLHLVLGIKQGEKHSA
# [1] = in vitro, read-out: PI3K α IC50
# [2] = in vitro, read-out: PI3K β IC50
# [3] = in vitro, read-out: PI3K δ IC50
# [4] = in vitro, read-out: PI3K γ IC50
# Sequence of p110β/p85α (P42338 whole entry): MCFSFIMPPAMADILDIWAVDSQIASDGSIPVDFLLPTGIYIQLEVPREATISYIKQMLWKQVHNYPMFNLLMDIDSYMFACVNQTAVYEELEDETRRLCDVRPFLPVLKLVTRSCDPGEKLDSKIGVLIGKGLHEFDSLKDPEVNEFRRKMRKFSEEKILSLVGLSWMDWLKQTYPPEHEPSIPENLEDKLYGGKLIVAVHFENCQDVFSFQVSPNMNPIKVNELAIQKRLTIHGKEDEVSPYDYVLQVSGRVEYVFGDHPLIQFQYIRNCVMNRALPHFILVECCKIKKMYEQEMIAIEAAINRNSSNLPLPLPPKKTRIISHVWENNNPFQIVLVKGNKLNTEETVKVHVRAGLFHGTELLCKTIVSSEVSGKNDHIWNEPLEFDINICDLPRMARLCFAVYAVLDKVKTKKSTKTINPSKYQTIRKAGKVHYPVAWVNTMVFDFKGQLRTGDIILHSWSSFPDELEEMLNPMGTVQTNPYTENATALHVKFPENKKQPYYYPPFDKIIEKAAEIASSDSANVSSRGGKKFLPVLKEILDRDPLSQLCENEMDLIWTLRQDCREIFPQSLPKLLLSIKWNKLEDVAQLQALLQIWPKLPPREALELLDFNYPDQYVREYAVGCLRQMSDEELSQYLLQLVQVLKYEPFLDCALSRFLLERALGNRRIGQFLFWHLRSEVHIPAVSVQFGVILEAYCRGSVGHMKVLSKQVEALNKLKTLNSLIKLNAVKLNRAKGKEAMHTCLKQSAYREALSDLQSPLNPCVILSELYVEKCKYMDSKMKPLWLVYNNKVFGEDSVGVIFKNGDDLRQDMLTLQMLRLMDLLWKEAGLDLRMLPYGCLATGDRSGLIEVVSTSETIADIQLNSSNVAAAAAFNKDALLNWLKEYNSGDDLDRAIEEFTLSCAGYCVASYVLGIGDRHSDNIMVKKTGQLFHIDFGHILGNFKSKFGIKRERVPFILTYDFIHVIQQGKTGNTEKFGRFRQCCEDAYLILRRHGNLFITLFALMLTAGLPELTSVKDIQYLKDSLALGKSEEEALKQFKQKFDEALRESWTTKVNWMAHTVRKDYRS
# Sequence of p110β/p85α (P27986 whole entry partner): as the sequence (P27986 whole entry partner) above
# Sequence of p110α/p85α (P42336 whole entry): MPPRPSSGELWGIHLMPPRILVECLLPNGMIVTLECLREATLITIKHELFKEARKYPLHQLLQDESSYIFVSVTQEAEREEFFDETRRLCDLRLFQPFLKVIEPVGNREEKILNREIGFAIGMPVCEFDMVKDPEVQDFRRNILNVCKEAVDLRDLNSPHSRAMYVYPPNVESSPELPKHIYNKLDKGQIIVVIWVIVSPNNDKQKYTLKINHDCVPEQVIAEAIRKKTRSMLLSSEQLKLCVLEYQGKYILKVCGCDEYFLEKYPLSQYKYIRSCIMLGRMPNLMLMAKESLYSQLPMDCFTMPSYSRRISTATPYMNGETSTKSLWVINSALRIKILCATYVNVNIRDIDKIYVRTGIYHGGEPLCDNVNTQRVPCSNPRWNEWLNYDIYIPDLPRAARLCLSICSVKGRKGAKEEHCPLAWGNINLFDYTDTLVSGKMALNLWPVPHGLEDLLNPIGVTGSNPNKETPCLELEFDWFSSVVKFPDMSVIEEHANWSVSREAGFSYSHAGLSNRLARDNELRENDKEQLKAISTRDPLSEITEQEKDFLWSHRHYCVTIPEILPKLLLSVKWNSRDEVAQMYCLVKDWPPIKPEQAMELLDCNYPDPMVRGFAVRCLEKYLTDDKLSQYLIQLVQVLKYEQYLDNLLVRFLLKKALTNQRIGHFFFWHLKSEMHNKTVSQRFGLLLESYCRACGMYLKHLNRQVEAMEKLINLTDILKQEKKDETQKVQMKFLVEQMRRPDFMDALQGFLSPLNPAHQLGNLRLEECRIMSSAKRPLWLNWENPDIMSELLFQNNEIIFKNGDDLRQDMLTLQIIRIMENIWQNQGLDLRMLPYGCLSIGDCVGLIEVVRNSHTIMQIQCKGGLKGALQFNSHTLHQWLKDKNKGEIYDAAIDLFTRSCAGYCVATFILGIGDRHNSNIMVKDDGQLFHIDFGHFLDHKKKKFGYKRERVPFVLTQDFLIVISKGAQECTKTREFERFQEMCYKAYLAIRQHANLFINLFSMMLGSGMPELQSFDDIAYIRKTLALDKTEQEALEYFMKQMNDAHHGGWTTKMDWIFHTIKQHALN
# Sequence of p110α/p85α (P27986 whole entry partner): as the sequence (P27986 whole entry partner) above
IC50 (p110α/p85α; read-out: PI3K α IC50) [nM],IC50 (p110β/p85α; read-out: PI3K β IC50) [nM],IC50 (p110δ/p85α; read-out: PI3K δ IC50) [µM],IC50 (p110γ; read-out: PI3K γ IC50) [nM],IC50 (p110α/p85α; [1]) [nM],IC50 (p110β/p85α; [2]) [nM],IC50 (p110δ/p85α; [3]) [µM],IC50 (p110γ; [4]) [nM],SMILES,further results
< 1000,< 10000,< 10,< 10000,,,,,Nc1nc2cc(-c3ccc4ncc(C(=O)N5CCC(N6CCOCC6)CC5)n4c3)ccc2o1 [compound 163],
< 100,< 10000,< 10,< 10000,,,,,CC(C)(C)N1CCN(C(=O)c2cnc3ccc(-c4ccc5oc(N)nc5c4)cn23)CC1 [compound 191],
< 1000,< 10000,< 10,< 10000,,,,,Nc1nc2cc(-c3ccc4ncc(C(=O)N5CCN(CC6CC6)CC5)n4c3)ccc2o1 [compound 161],
,,,,< 1000,< 1000,< 1,< 1000,CCN(CC)CCNC(=O)c1cnc2ccc(-c3ccc4oc(N)nc4c3)cn12 [compound 295],
< 1000,< 10000,< 10,< 10000,,,,,CC(=O)NC1CCN(C(=O)c2cnc3ccc(-c4ccc5oc(N)nc5c4)cn23)CC1 [compound 147],
< 100,< 1000,< 10,< 100,,,,,COC(=O)N1CCN(c2cnc3ccc(-c4ccc5oc(N)nc5c4)cc3n2)CC1 [compound 193],

# Second part, the molecule before the results:
SMILES,IC50 (p110α/p85α; read-out: PI3K α IC50) [nM],IC50 (p110β/p85α; read-out: PI3K β IC50) [nM],IC50 (p110δ/p85α; read-out: PI3K δ IC50) [µM],IC50 (p110γ; read-out: PI3K γ IC50) [nM],IC50 (p110α/p85α; [1]) [nM],IC50 (p110β/p85α; [2]) [nM],IC50 (p110δ/p85α; [3]) [µM],IC50 (p110γ; [4]) [nM],further results
CS(=O)(=O)N1CCC(Nc2ncnc3ccc(-c4ccc5oc(N)nc5c4)cc23)CC1 [compound 87],< 100,< 1000,< 0.1,< 100,,,,,
C[C@H]1CN(c2cnc3ccc(-c4ccc5oc(N)nc5c4)cc3n2)CCN1C [compound 332],,,,,< 1000,< 100,< 10,< 1000,
Nc1nc2cc(-c3ccc4ncc(N5CC[C@H](N6CCOCC6)C5)nc4c3)ccc2o1 [compound 375],,,,,< 1000,< 10000,< 1,< 1000,
CNC(=O)C1CN(c2cnc3ccc(-c4ccc5oc(N)nc5c4)cc3n2)C1 [compound 214],,,,,< 100,< 100,< 10,< 1000,
Nc1nc2cc(-c3ccc4ncc(-c5ccncc5)nc4c3)ccc2o1 [compound 71],< 100,< 10000,< 1,< 100,,,,,
CC(=O)Nc1nc2ccc(-c3cc(F)c4oc(N)nc4c3)cc2s1 [compound 434],,,,,,,,,IC50 (p110α/p85α; read-out: PI3K α In Vitro IC50): < 100 nM; IC50 (p110β/p85α; read-out: PI3K β In Vitro IC50): < 100 nM; IC50 (p110δ/p85α; read-out: PI3K δ In Vitro IC50): < 0.1 µM; IC50 (p110γ; read-out: PI3K γ In Vitro IC50): < 100 nM
C[C@@H]1CCCN1C(=O)c1cnc2ccc(-c3ccc4oc(N)nc4c3)cn12 [compound 481],,,,,,,,,IC50 (p110α/p85α; read-out: PI3K α In Vitro IC50): < 100 nM; IC50 (p110β/p85α; read-out: PI3K β In Vitro IC50): < 10000 nM; IC50 (p110δ/p85α; read-out: PI3K δ In Vitro IC50): < 10 µM; IC50 (p110γ; read-out: PI3K γ In Vitro IC50): < 1000 nM
Nc1nc2cc(-c3ccc4ncc(N5CC(C(=O)NC6CC6)C5)nc4c3)ccc2o1 [compound 215],,,,,< 100,< 1000,< 10,< 1000,
COc1ncc(-c2ccc3ncc(C(=O)N4CCOCC4)n3c2)cc1NS(=O)(=O)c1cccc(F)c1 [compound 423],,,,,,,,,IC50 (p110α/p85α; read-out: PI3K α In Vitro IC50): < 100 nM; IC50 (p110β/p85α; read-out: PI3K β In Vitro IC50): < 1000 nM; IC50 (p110δ/p85α; read-out: PI3K δ In Vitro IC50): < 0.1 µM; IC50 (p110γ; read-out: PI3K γ In Vitro IC50): < 100 nM
CC(C)(C#N)c1ccc(Nc2ncnc3ccc(-c4ccc5oc(N)nc5c4)cc23)cc1 [compound 102],< 100,< 1000,< 1,< 100,,,,,
COc1ncc(-c2ccc3ncn(C4CCN(C)CC4)c(=O)c3c2)cc1NS(C)(=O)=O [compound 525],,,,,,,,,IC50 (p110α/p85α; read-out: PI3K α In Vitro IC50): < 100 nM; IC50 (p110β/p85α; read-out: PI3K β In Vitro IC50): < 1000 nM; IC50 (p110δ/p85α; read-out: PI3K δ In Vitro IC50): < 0.1 µM; IC50 (p110γ; read-out: PI3K γ In Vitro IC50): < 10000 nM
Nc1nc2cc(-c3ccn4ncc(C(=O)N5CCC(N6CCOCC6)CC5)c4c3)ccc2o1 [compound 398],,,,,,,,,IC50 (p110α/p85α; read-out: PI3K α In Vitro IC50): < 1000 nM; IC50 (p110β/p85α; read-out: PI3K β In Vitro IC50): < 10000 nM; IC50 (p110δ/p85α; read-out: PI3K δ In Vitro IC50): < 10 µM; IC50 (p110γ; read-out: PI3K γ In Vitro IC50): < 10000 nM
Nc1nc2cc(-c3cn4c(-c5cn[nH]c5)cnc4cn3)ccc2o1 [compound 69],< 1000,< 10000,< 10,< 1000,,,,,
Nc1nc2cc(-c3ccc4ncc(N5CC(N6CC[C@H](O)C6)C5)nc4c3)ccc2o1 [compound 322],,,,,< 100,< 1000,< 10,< 1000,
Nc1nc2cc(-c3ccc4ncc(N[C@H]5CC[C@H](O)CC5)nc4c3)ccc2o1 [compound 128],< 100,< 10000,< 0.1,< 100,,,,,
Cc1cc(-c2ccc3oc(N)nc3c2)cc2c(C(=O)N3CCCC3)cnn12 [compound 368],,,,,< 100,< 10000,< 1,< 1000,
C[C@H]1CN(c2cnc3ccc(-c4ccc5oc(N)nc5c4)cc3n2)CCN1 [compound 178],< 100,< 100,< 1,< 1000,,,,,
CN1CC(C(=O)N2CCC(Nc3ncnc4ccc(-c5ccc6oc(N)nc6c5)cc34)CC2)C1 [compound 138],< 100,< 1000,< 0.1,< 1000,,,,,
CN(C)[C@H]1CCN(c2cnc3ccc(-c4ccc5oc(N)nc5c4)cc3n2)C1 [compound 382],,,,,< 100,< 1000,< 10,< 1000,
